Experimental data: US6815450B2, “Axon regeneration with PKC inhibitors” (Children's Medical Center Corporation, priority 2002, dated 2004)

Columns and labels:
[1] = test system: CGNs, DRG sensory neurons or NG108 cells on immobilized CNS myelin; assay: neurite outgrowth assay on CNS myelin substrate; assay type: cell-based, rat
Experimental: To assess the functional relevance of the activation of the PI3K, MEK and PLC-g pathways, we utilized a standard neurite outgrowth assay in which NG108 cells or cerebellar granule neurons (CGN) from postnatal day 7-9 (P7-9) rats were grown on immobilized recombinant MAG or myelin (5-10, 16). Pharmacological inhibitors of the individual pathways—LY294002 and wortmannin for PI3K, U0126 for MEK, and U73122 for PLC-g, were then added to assess whether and to what extent these inhibitors could overcome the inhibitory activity of MAG or of myelin. […] As MEK has been previously shown to be required for axon growth induced by chronic exposure to neurotrophins (14), but not for growth cone turning in acute responses to NGF gradients (12), our results of abolishing MAG inhibition by an MEK inhibitor imply that the MEK pathway can be required only for neurite outgrowth in response to external cues.
Based on the modulation of neurite outgrowth by modulating PKC activity, we predicted that inhibiting PKC activity might abolish or convert the inhibitory responses of neurons to MAG and other myelin-associated inhibitors. […] Based on existing evidence for the functional interactions between the PKA and PKC pathways (24), we conclude that both PKA and PKC act through parallel mechanisms in affecting neurite outgrowth. Although many PKC isoforms are expressed in the nervous system (25), our observations with phorbol ester and selective PKC inhibitors indicate the involvement of at least classical PKC isoforms whose activation is dependent on diacylglycerol (DAG) and calcium (24).
Screening for compounds that allow neurite outgrowth from postnatal day 7-9 rat cerebellar granule neurons (CGNs) on CNS myelin substrates, we identified several broad-specificity PKC inhibitors from a small molecule libraries. Based on their structure and substrate requirements, PKC isoforms can be divided into three classes: the Ca++ and second messenger diacylglycerol (DAG)-sensitive conventional PKCs (-α, -β, and -γ), the Ca++-independent but DAG-dependent novel PKCs (-δ, -ε, -η, -θ, and -μ), and the Ca++- and DAG-insensitive atypical PKCs (-ζ and -λ). We first examined PKC inhibitors with a higher specificity for the conventional class of PKC isotypes for their ability to promote neurite outgrowth on CNS myelin. These inhibitors included Chelerythrine, Calphostin, Bisindoleylmaleimide I, and Gö6976. Dose response experiments (in the range of 10 nM to 10 uM) were carried out for each PKC inhibitor.

[2] = test system: P7 rat CGNs injected into the ventral funiculus of the adult rat spinal cord; assay: intra white matter transplantation of CGNs; assay type: in vivo; settings: two weeks after transplantation; CGNs pretreated with 50 nM
Experimental: We thus injected vehicle or Gö6976-treated P7 rat CGNs into the ventral funiculus of the adult rat spinal cord and examined neurite outgrowth of these transplanted neurons within the white matter that is largely composed of myelinated axons (26).
26. Intra white matter transplantation of CGNs. P7 CGN (50,000 cells/ml) were prelabeled with Cell Tracker CM-DiI (1 mM; Molecular Probes, Eugene, Oreg.), pretreated with PBS or 50 nM Gö6976, and microinjected at the level of T9 into the spinal cord ventral funiculus of adult Sprague-Dawley rats ([…]; N=3 for each group). Two pieces of 2 mm^3 gelfoam (Pharmacia & Upjohn, Kalamazoo, Mich.) soaked with PBS or 500 nM Gö6976 were placed onto the spinal dura where the penetration for cell injection occurred. Spinal cords (8 mm in length centered around the CGN injection site) were collected 2 weeks after surgery, and […] sagittal sections were made. DiI positive CGNs were examined with a fluorescent microscope (Omega XF-32 optical filter) in all sections of each cord to evaluate cell survival (27). Percentages of the neurite-bearing CGNs and CGNs with neurites longer than twice the soma length were quantified among 400 CGNs from a single […] of each cord that had the highest number of neurite-bearing CGNs.

[3] = test system: CGNs on MAG, Nogo-A and OMgp; assay: neurite outgrowth on individual myelin inhibitors; assay type: cell-based, rat
Experimental: […] Based on their structure and substrate requirements, PKC isoforms can be divided into three classes: the Ca++ and second messenger diacylglycerol (DAG)-sensitive conventional PKCs (-α, -β, and -γ), the Ca++-independent but DAG-dependent novel PKCs (-δ, -ε, -η, -θ, and -μ), and the Ca++- and DAG-insensitive atypical PKCs (-ζ and -λ). […] These inhibitors included Chelerythrine, Calphostin, Bisindoleylmaleimide I, and Gö6976. Dose response experiments (in the range of 10 nM to 10 uM) were carried out for each PKC inhibitor.

RhoA = RhoA pull down assay in stimulated CGNs; assay type: cell-based, rat; settings: cultured CGNs
Excerpt: We also assessed whether individual inhibitors affect endogenous PKC activity in treated neurons. […] To further confirm the role of PKC as a direct signaling mediator, we examined whether PKC activation by myelin inhibitors is dependent on NgR, a required receptor component for all of the three major myelin inhibitors. Thus, we used recombinant retroviruses to overexpress full-length or dominant negative NgR in CGNs and examined PKC activation in these transduced neurons by NgR ligands. […] An additional and critical signaling event shared by these inhibitory activities is the activation of the small GTPase RhoA. In order to determine the relationship between PKC and RhoA in these pathways, we stimulated cultured CGNs with MAG-Fc, AP-Nogo-66 or CSPG in the presence or absence of Gö6976 and examined the RhoA activation in these conditions by subjecting the resulting cell lysates to a RhoA pull down assay. […] Thus, conventional PKCs participate in transducing the inhibitory signals of both myelin inhibitors and CSPG from their specific cell surface receptors to activate RhoA.

[4] = test system: dorsal column ascending axons; assay: dorsal column axonal regeneration after C3-4 spinal dorsal hemisection; assay type: in vivo, adult rats
Experimental: To assess the contribution of PKC mediated inhibitory effects on axon regeneration in vivo, we examined whether intrathecal infusion of Gö6976 affected regeneration of dorsal column ascending axons following spinal cord dorsal hemisection in adult rats. The hemisection was performed between the 3rd and 4th cervical spinal segments (C3-4) to a depth of 1.6 mm from the dorsal surface of the cord using a VibraKnife device that can be used to precisely control the lesion depth stereotaxically. To ensure that bilateral dorsal columns were completely transected, the lesion was advanced ventrally to the level of central cannel resulting in the transection of the entire dorsal half of the spinal cord. After the lesion, dura mater was sutured to restore cerebespinal fluid circulation and to prevent connective tissue invasion. Intrathecal delivery of Gö6976 (20 uM) or saline vesicle into the lesion site was achieved by constant infusion of the compound at a rate of 0.5 ul/hr for 14 days using an Alzet mini-osmotic pump (Model 2002). Five weeks after surgery, a narrow lesion gap through the dorsal half of the cord was clearly seen, confirming the completeness of dorsal column transection. […] Anatomical regeneration of injured dorsal column axons was assessed by anterograde tracing of Cholera toxin B subunit (CTB) which was injected into bilateral sciatic nerves and brachial plexuses.

Question: Which “neurite outgrowth on immobilized CNS myelin” value ([1]; P7-9 rat CGNs and DRG sensory neurons) does the source give for `Cn1c2ccccc2c2c3c(c4c5ccccc5n(CCC#N)c4c21)CNC3=O` [Gö6976] here?
Answer: profoundly affected neurite outgrowth by enhancing both the number of neurite-bearing cells and the length of neurites

Question: And the “neurite outgrowth on a CNS myelin substrate” value ([1]; P7-9 rat CGNs, 100 nM)?
Answer: profoundly mitigated outgrowth inhibition and promoted significant neurite outgrowth

Question: What about the “donor neurons bearing neurites” value [2] of the same compound?
Answer: 85%

Question: And the “neurite-bearing neurons with neurites longer than twice their soma diameters” value [2]?
Answer: 80%

Question: And the “neurite outgrowth inhibition induced by MAG, Nogo-A and OMgp” value [3]?
Answer: efficiently overcame neurite outgrowth inhibition

Question: And the “MAG-Fc, AP-Nogo-66 and CSPG induced RhoA activation” value (RhoA)?
Answer: blocked MAG-Fc, AP-Nogo-66 and CSPG induced RhoA activation in a dose dependent manner

Question: And the “regeneration of CTB-labeled dorsal column axons across the lesion” value ([4]; 20 uM intrathecal, 0.5 ul/hr for 14 days, five weeks after surgery)?
Answer: CTB-labeled axons were seen to cross the lesion gap and grow within the distal host spinal cord for a considerable distance

Question: What about the “distance distal to the injury at which many regenerated axons ended” value ([4]; 20 uM intrathecal, 0.5 ul/hr for 14 days, longest distance examined) of the same compound?
Answer: 7 mm

Question: What about the “functional connections and recovery” value ([4]; subsequent studies) of the same compound?
Answer: improves physiological and behavioral recovery
